Reference: patent publication US8628806B2, “Hypolipidemic composition and its use” (Hangzhou Minsheng Pharmaceutical Co., Ltd., priority 2006, dated 2014)

Tests used:
[1] = test system: hyperlipidemia mice; experiment: Example 16 dose screening of H1+B1 (4:1) in yolk emulsion hyperlipidemia mice; format: in vivo, ICR mice; conditions: dose 20 mg/kg ig once daily 7 days; X±SD, 10 animals
Experimental: H1 is peony extract obtained from Example 1. B1 is Codonopsis extract obtained from Example 7. The test medicines are mixtures of H1 and B1 with the ratio of 4:1 (the weight ratio of peony extract and Codonopsis extract is 2.7:1).
80 SPF ICR mice were employed with the body weight 20±2 g, half are male and the other half are female. Provided by Zhejiang Province Experimental Animal Center, Licence: SCXK(ZHE)2003-0001
(§1) 90 ml yolk and 30 ml physiological Saline were mixed thoroughly in electric mixer to form emulsion, which was stored at 4° C. for further use.
(§2) 80 ICR mice were randomly divided into 8 groups: test medicine 1, test medicine 2, test medicine 3, test medicine 4, test medicine 5, postive control group (Zocor), model control group and normal control group, 10 mice for each group, half male and half female. Once daily for a continuous 7-day period, the model control group and normal control group were provided with same volume of distilled water, while the other groups were administered with medicines by gastric perfusion. 2 hours after the last gastric perfusion, except for the normal control group, fresh yolk emulsion was intraperitoneally injected to the rest 7 groups of mice, 0.5 ml for a single animal. After 20 hours, eye ball was plucked and blood was collected, make sure 12 hours fasting before the collection. The content of total cholesterol (TC), triglyceride (TG) and high density lipoprotein (HDL-C) of the serum were measured.
T test was employed to analyze the significant difference between the groups. The result is shown in X±SD.

[2] = test system: hyperlipidemia mice; experiment: Example 15 hypolipidemic effect of peony/Codonopsis extract ratios in yolk emulsion hyperlipidemia mice; format: in vivo; conditions: hyperlipidemia ICR mice
Experimental: Group H1 and B1 were mixed in different ratios (see Table 8) and formulated into different test medicines. Recommended dose (animal): H1+B1=200 mg/kg body weight, ig dose is 0.2 ml/10 g body weight. [table] 100 SPF ICR mice were employed with the body weight 20±2 g, half are male and the other half are female. Provided by Zhejiang Province Experimental Animal Center, Licence: SCXK(ZHE)2003-0001 90 ml yolk and 30 ml physiological Saline were mixed thoroughly in electric mixer to form emulsion, which was stored at 4° C. for further use. […]: test medicine 1-23 groups, postive control group (Zocor), model control group and normal control group, 10 mice for each group, half male and half female. […] The content of total cholesterol (TC), triglyceride (TG) and high density lipoprotein (HDL-C) of the serum were measured. T test was employed to analyze the significant difference between the groups. The result is shown in X±SD.

[3] = test system: hyperlipidemia mice; experiment: Example 14 lipid lowering screening test in yolk emulsion hyperlipidemia mice; format: in vivo; conditions: hyperlipidemia ICR mice; ig once daily 7 days; dose 20 mg/kg; X±SD, 10 animals
Experimental: As described before, the test medicine is the mixture of H series and B series in the ratio H:B (3:1). Recommended dose (for animal) is: […] the recommended does is 200 mg/kg. • Test medicine 1: H1+B1, ig 0.2 ml/10 g; • Test medicine 2: H2+B1, ig 0.2 ml/10 g; • Test medicine 3: H3+B1, ig 0.2 ml/10 g; • Test medicine 4: H4+B1, ig 0.2 ml/10 g; • Test medicine 5: H5+B1, ig 0.2 ml/10 g; • Test medicine 6: H1+B2, ig 0.2 ml/10 g; • Test medicine 7: H2+B2, ig 0.2 ml/10 g; • Test medicine 8: H3+B2, ig 0.2 ml/10 g; • Test medicine 9: H4+B2, ig 0.2 ml/10 g; • Test medicine 10: H5+B2, ig 0.2 ml/10 g; • Test medicine 11: HB ig 0.2 ml/10 g.
130 SPF ICR mice were employed with the body weight 20±2 g, half are male and the other half are female. Provided by Zhejiang Province Experimental Animal Center, Licence: SCXK(ZHE)2003-0001
as §1
as §2, with “140 ICR” for “80 ICR”, “into 14” for “into 8”, “5, test medicine 6, test medicine 7, test medicine 8, test medicine 9, test medicine 10, test medicine 11,” for “5,”, “a continous” for “a continuous”, “except of” for “except for”, “rest 13” for “rest 7”
EXCEL was employed to analyze the significant difference between the groups. The result is shown in X±SD.

[4] = ig once daily 7 days, dose 20 mg/kg, X±SD, 10 animals
[5] = test medicines 200 mg/kg, positive control 20 mg/kg, ig 7 days

## CCC(C)(C)C(=O)O[C@H]1C[C@@H](C)C=C2C=C[C@H](C)[C@H](CC[C@@H]3C[C@@H](O)CC(=O)O3)[C@H]21 [positive control group]
[1]
  HDL-C (serum high density lipoproteincholesterol content): 1.35 ± 0.15 mmol/L
  HDL-C/TC: 0.26 ± 0.06
  TC (total serum cholesterol content): 5.97 ± 2.40 mmol/L
  TG (serum triglyceride content): 4.31 ± 3.28 mmol/L
[2]; [4]
  HDL-C (serum high density lipoproteincholesterol content): 1.59 ± 0.13 mmol/L
  HDL-C/TC: 0.22 ± 0.08
  TC (total serum cholesterol content): 8.03 ± 3.12 mmol/L
  TG (serum triglyceride content): 8.57 ± 4.20 mmol/L
[2]; [5]
  TC compared with model control group: lower TC, with significant difference (P<0.05)
  TG compared with model control group: lower TG, with significant difference (P<0.05)
[3]
  HDL-C (serum high density lipoproteincholesterol content): 1.39 ± 0.23 mmol/L
  HDL-C/TC: 0.18 ± 0.05
  TC (total serum cholesterol content): 8.58 ± 4.18 mmol/L
  TG (serum triglyceride content): 7.78 ± 5.36 mmol/L
